For 25 compounds, IC50 results are on record in US8975265B2, “Substituted imidazo[1,2-a]pyrimidines and —pyridines” (Bayer Intellectual Property GmbH, priority 2010, dated 2015).

Assay [1] addresses His-tagged human recombinant kinase full-length Akt1 (Homo sapiens (Human), UniProt P31749). Put plainly: Akt1 kinase assay (TR-FRET). In kind it is biochemical. The note with it: 10 μM ATP; read-out: Akt1, median IC50. The procedure, abridged:
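Full-length His-tagged Akt1 (about 0.05 ng/μl final) preincubated 15 min at 22 °C with compound in 50 mM TRIS/HCl pH 7.5, 5 mM MgCl2, 1 mM DTT, 0.02% Triton X-100; biotinylated peptide substrate. Phosphopeptide detected by TR-FRET (Eu-chelate antibody to streptavidin-XL665) after 1 h at 22 °C.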

Assay [2] has as its system p-4E-BP1-T70 in KPL4 breast tumour cell line. Put plainly: Cellular p-4E-BP1-T70 assay. In kind it is cell-based. The following applies: 2 hours treatment, read-out: P4EBP1-T70 median IC50. The procedure: The molecular mechanism of action was investigated in a set of experiments to assess the inhibition of the PI3K-AKT-mTOR pathway in responsive cell lines such as KPL4 breast tumour cell line (PIK3CAH1047R, HER20/E and hormone independent). The phospho-substrates of PI3K-AKT-mTOR axis were used as the read-outs to reflect pathway inhibition. Cells were seeded at 60-80% confluency per well in 96-well cell culture plates. After overnight incubation at 37° C. 5% CO2, cells were treated with compounds and vehicle at 37° C. for 2 hours. Thereafter, cells were lysed in 150 μl lysis buffer and the levels of phospho-AKT at T308 and S473 and p-4E-BP1 at T70 sites were determined with the corresponding AlphaScreen® SureFire® assay kits (Perkin Elmer: 4E-BP1 Assay Kit Cat # TRG4E2S10K; Akt 1/2/3 p-Ser 473 #TGRA4S500 and Akt 1/2/3 p-Thr 308 #TGRA3S500 as well as IgG detection Kit #6760617M) as described in the manuals. All measurements where at least done in duplicates and confirmed by independent repetition.

Assay [3] concerns p-AKT1/2/3-S473 in KPL4 breast tumour cell line. Put plainly: Cellular p-AKT1/2/3-S473 assay. In kind it is cell-based. The note with it: KPL4 breast tumour cell line, 2 hours treatment; read-out: pAKT-S743 median IC50. In outline: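 KPL4 cells (PIK3CA H1047R, HER2 0/E, hormone independent) were seeded at 60–80% confluency, cultured overnight, then exposed to compound for 2 h at 37 °C. pAKT-S473 and total AKT measured together by MSD Akt Duplex on 20 µg extract; pAKT expressed as % of total AKT, at least duplicate with independent repeats.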

A further assay concerns MCF7. Put plainly: Tumor cell proliferation assay (CellTiter-Glo, 72 h), MCF7. The note with it: Homo sapiens, 72h drug exposure. It is filed as cell-based. The method, then:
Compounds were tested in a cell-based assay that measures the capacity of the compounds to inhibit tumour cell proliferation following a 72h drug exposure. Cell viability is determined using CellTiter-Glow® (CTG, Promega, cat# G7571/2/3). The CellTiter-Glo® Luminescent Cell Viability Assay is a homogeneous method to determine the number of viable cells in culture. Detection is based on using the luciferase reaction to measure the amount of ATP from viable cells. The amount of ATP in cells correlates with cell viability. Within minutes after a loss of membrane integrity, cells lose the ability to synthesize ATP, and endogenous ATPases destroy any remaining ATP; thus the levels of ATP fall precipitously.
Cells were plated at 3000-5000 cells/well (depending on the cell lines) in 90 μL growth medium on MTPs (Corning; #3603, black plate, clear flat bottom). For each cell line assayed, cells were plated onto a separate plate for determination of […] at t=0 hour and t=72 hour time points. Following overnight incubation at 37° C., chemiluminescence values for the t=0 samples were determined after adding 10 μl medium and 100 μl CTG solution according to manufacture protocol. Plates for the t=72 hour time points were treated with compounds diluted into growth medium at ten times final concentration added in 10 μL to the cell culture plate. Cells were then incubated for 72 hours at 37° C. Chemiluminescence values for the t=72 hour samples were determined. […] Experiments were controlled using a reference compound as standard.

In assay [4] the test system is KPL-4 breast cancer cell line. Put plainly: Tumor cell proliferation assay (CellTiter-Glo, 72 h), KPL-4. In kind it is cell-based. The following applies: KPL4, 72h drug exposure. The procedure, abridged: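 KPL-4 cells were treated with compound for 72 h at 37°C. Viability was measured as ATP by CellTiter-Glo luminescence, with a separate t=0 plate read after overnight attachment. A reference compound was run as standard.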

His-tagged human recombinant kinase full-length Akt1, sequence (P31749 whole entry): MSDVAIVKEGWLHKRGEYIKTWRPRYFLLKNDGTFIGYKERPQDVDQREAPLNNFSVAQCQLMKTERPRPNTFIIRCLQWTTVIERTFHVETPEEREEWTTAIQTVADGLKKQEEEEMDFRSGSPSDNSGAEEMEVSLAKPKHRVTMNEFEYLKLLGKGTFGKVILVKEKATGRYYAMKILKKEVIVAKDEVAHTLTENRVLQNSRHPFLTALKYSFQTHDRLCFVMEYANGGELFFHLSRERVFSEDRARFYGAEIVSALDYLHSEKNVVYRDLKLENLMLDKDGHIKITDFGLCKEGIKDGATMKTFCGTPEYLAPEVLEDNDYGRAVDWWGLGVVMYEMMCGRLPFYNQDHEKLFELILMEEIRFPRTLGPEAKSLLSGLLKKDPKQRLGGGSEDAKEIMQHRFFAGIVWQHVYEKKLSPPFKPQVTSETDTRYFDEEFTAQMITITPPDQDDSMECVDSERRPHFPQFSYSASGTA

Consider `COc1cc(-c2ncc[nH]2)cn2c(-c3ccccc3)c(-c3ccc(C4(N)CCC4)cc3)nc12` [Example 2-149], for which the IC50 came to 198 nM in assay [1]; 1960 nM in assay [2]; 576 nM in assay [3]; 1800 nM with MCF7; 2900 nM in assay [4].

Regarding `Cc1c(Cl)cn2c(-c3ccccc3)c(-c3ccc(C4(N)CCC4)cc3)nc2c1-c1ccn[nH]1` [Example 2-88], the IC50 was 187 nM in assay [1]; 8520 nM in assay [2]; 2570 nM in assay [3]; 2100 nM in the assay on MCF7; 2500 nM in assay [4].

For `CC(=O)Nc1ccc2nc(-c3ccc(C4(N)CCC4)cc3)c(-c3ccccc3)n2c1` [Example 2-156], the concentration for half-maximal inhibition (IC50) in assay [1] worked out at 62 nM; in assay [2], 1210 nM; in assay [3] it was 190 nM; in the assay on MCF7 it was 500 nM; in assay [4] it was 900 nM.

In the case of `COc1cc(-c2cnc[nH]2)cn2c(-c3ccccc3)c(-c3ccc(C4(N)CCC4)cc3)nc12` [Example 2-148], the IC50 worked out at 139 nM in assay [1]; 1810 nM in assay [2]; 397 nM in assay [3]; 1500 nM in the assay with MCF7; 1900 nM in assay [4].

Take `NC1(c2ccc(-c3nc4c(Br)cc(Cl)cn4c3-c3ccccc3)cc2)CCC1` [Example 2-85]: the IC50 was found to be 5 nM in assay [1]; 1800 nM in assay [2]; 161 nM in assay [3]; 1400 nM in the assay with MCF7; 1900 nM in assay [4].

For the compound `Cc1c(-c2ccn[nH]2)cn2c(-c3ccccc3)c(-c3ccc(C4(N)CCC4)cc3)nc2c1C` [Example 2-89], the IC50 in assay [1] turned out to be 330 nM; in assay [2] it was 1400 nM; in assay [3] it was 380 nM; in the assay on MCF7, 1700 nM; in assay [4], 1900 nM.

With `Nc1ccc2nc(-c3ccc(C4(N)CCC4)cc3)c(-c3ccccc3)n2c1` [Example 2-155], the IC50 in assay [1] stood at 854 nM; in assay [2], 2220 nM; in assay [3], 374 nM; in the assay with MCF7, 1700 nM; in assay [4], 5500 nM.

Consider `Cc1cc(-c2cn[nH]c2)cn2c(-c3ccccc3)c(-c3ccc(C4(N)CCC4)cc3)nc12` [Example 2-102], for which the IC50 in assay [1] came out at 106 nM; in assay [2], 158 nM; in assay [3] it was 33 nM; with MCF7, 1900 nM; in assay [4], 1900 nM.

`Cc1c(Cl)cn2c(-c3ccccc3)c(-c3ccc(C4(N)CCC4)cc3)nc2c1-c1ccc(F)cc1` [Example 2-87]: the IC50 in assay [2] amounted to 10000 nM; in assay [3], 7530 nM; in the assay on MCF7, 2100 nM; in assay [4], 3700 nM.

Take `Cc1cc(-c2ccn[nH]2)cn2c(-c3ccccc3)c(-c3ccc(C4(N)CCC4)cc3)nc12` [Example 2-103]: the concentration for half-maximal inhibition (IC50) in assay [1] stood at 99 nM; in assay [2] it was 719 nM; in assay [3], 230 nM; with MCF7, 200 nM; in assay [4], 200 nM.

Take `NC1(c2ccc(-c3nc4cc(F)ccn4c3-c3ccccc3)cc2)CCC1` [Example 2-67]: the IC50 amounted to 64 nM in assay [1]; 2000 nM in assay [2]; 195 nM in assay [3]; 1300 nM in the assay with MCF7; 1700 nM in assay [4].

`Nc1ccn2c(-c3ccccc3)c(-c3ccc(C4(N)CCC4)cc3)nc2c1` [Example 2-151]: the IC50 in assay [1] is 514 nM; in assay [2], 4810 nM; in assay [3], 482 nM; with MCF7 it was 200 nM; in assay [4] it was 1700 nM.

In the case of `C=Cc1cc(OC)c2nc(-c3ccc(C4(N)CCC4)cc3)c(-c3ccccc3)n2c1` [Example 2-160], the half-maximal inhibitory concentration (IC50) in assay [1] was determined as 191 nM; in assay [2], 1380 nM; in assay [3], 349 nM; in the assay on MCF7 it was 800 nM; in assay [4], 1600 nM.

Regarding `Cc1cc(-c2cc(C)c3nc(-c4ccc(C5(N)CCC5)cc4)c(-c4ccccc4)n3c2)[nH]n1` [Example 2-105], the IC50 in assay [1] came to 217 nM; in assay [2] it was 573 nM; in assay [3] it was 669 nM; in the assay with MCF7, 1800 nM; in assay [4], 2200 nM.

Consider `CS(=O)(=O)Nc1ccc2nc(-c3ccc(C4(N)CCC4)cc3)c(-c3ccccc3)n2c1` [Example 2-159], for which the IC50 in assay [1] amounted to 2990 nM; in assay [2] it was 3280 nM; in assay [3], 907 nM; in the assay on MCF7, 2800 nM; in assay [4] it was 4700 nM.

With `NC(=O)c1cc(-c2ccn[nH]2)cn2c(-c3ccccc3)c(-c3ccc(C4(N)CCC4)cc3)nc12` [Example 2-98], the IC50 in assay [1] stood at 69 nM; in assay [2], 1120 nM; in assay [3] it was 225 nM; in the assay with MCF7 it was 1900 nM; in assay [4] it was 1900 nM.

On to `CCc1cc(OC)c2nc(-c3ccc(C4(N)CCC4)cc3)c(-c3ccccc3)n2c1` [Example 2-147], for which the IC50 amounted to 148 nM in assay [1]; 1340 nM in assay [2]; 248 nM in assay [3]; 500 nM in the assay on MCF7; 1700 nM in assay [4].

In the case of `NC(=O)c1cc(Br)c2nc(-c3ccc(C4(N)CCC4)cc3)c(-c3ccccc3)n2c1` [Example 2-95], the IC50 in assay [1] was 11 nM; in assay [2], 13 nM; in assay [3] it was 3 nM; in the assay with MCF7, 400 nM; in assay [4], 400 nM.

As for `COc1ccn2c(-c3ccccc3)c(-c3ccc(C4(N)CCC4)cc3)nc2c1C#N` [Example 2-79], the IC50 in assay [2] was determined as 370 nM; in assay [3] it was 48 nM; in the assay with MCF7 it was 500 nM; in assay [4] it was 900 nM.

For the compound `NC(=O)c1cc(-c2cccnc2)cn2c(-c3ccccc3)c(-c3ccc(C4(N)CCC4)cc3)nc12` [Example 2-99], the 50% inhibitory concentration (IC50) was 177 nM in assay [1]; 90 nM in assay [2]; 93 nM in assay [3]; 1800 nM with MCF7; 1800 nM in assay [4].

`Cc1c(C(N)=O)cn2c(-c3ccccc3)c(-c3ccc(C4(N)CCC4)cc3)nc2c1C` [Example 2-100]: the IC50 was 201 nM in assay [1]; 54 nM in assay [2]; 67 nM in assay [3]; 1200 nM in the assay with MCF7; 900 nM in assay [4].

With `NC1(c2ccc(-c3nc4ccc(-c5cnc[nH]5)cn4c3-c3ccccc3)cc2)CCC1` [Example 2-129], the 50% inhibitory concentration (IC50) was 195 nM in assay [1]; 2180 nM in assay [2]; 180 nM in assay [3]; 300 nM in the assay with MCF7; 1800 nM in assay [4].

As for `Cc1cc(Br)cn2c(-c3ccccc3)c(-c3ccc(C4(N)CCC4)cc3)nc12` [Example 2-82], the half-maximal inhibitory concentration (IC50) came to 3280 nM in assay [2], 1020 nM in assay [3], 1700 nM with MCF7 and 2100 nM in assay [4].

As to `Cc1cc(C(N)=O)cn2c(-c3ccccc3)c(-c3ccc(C4(N)CCC4)cc3)nc12` [Example 2-101], the IC50 in assay [1] was 14 nM; in assay [2] it was 89 nM; in assay [3], 19 nM; in the assay on MCF7, 300 nM; in assay [4], 300 nM.

As to `Cc1cccc2nc(-c3ccc(C4(N)CCC4)cc3)c(-c3ccccc3)n12` [Example 14-0, 1-[4-(5-methyl-3-phenylimidazo[1,2-a]pyridin-2-yl)phenyl]cyclobutanamine], the half-maximal inhibitory concentration (IC50) was found to be 1500 nM in assay [1]; 8150 nM in assay [2]; 1120 nM in assay [3]; 1800 nM in the assay with MCF7; 3100 nM in assay [4].
